“And” between values parts separate entries of the source, which are not always exact repeats. Identical values can stand only once. Like-named read-outs stand apart in the source and are kept apart here.
How the values were obtained:
[1] = target: PD-1 tagged with SD in the brain (Mus musculus, UniProt Q02242+Q8C7D2); experiment: PD-1 expression in brain, western blotting; assay type: in vivo; settings: Pdcd1SD/SD/CrbnI391V/I391V mice
Procedure: Although the growth of GL-261 in the brain was inhibited, it is likely that the BBB was destroyed in cancer growth experiments in which GL-261 was transplanted.[34] Therefore, we conducted an experiment in which IBR was administered without the transplantation of brain tumor cell lines as a model for protein degradation experiments in the brain under normal conditions. […] Thus, this degron system can be used in the brain.
Brain tissue was collected after the mice were deeply anesthetized and perfused with PBS to remove blood. They were immediately frozen in liquid nitrogen and homogenized in Nervous Tissue Protein Extraction buffer (TCI, Tokyo, Japan). After centrifuging the lysate at 20,000 g for 10 min at 4°C, heated at 98°C for 3 min with NuPAGE Sample Reducing Agent (Thermo Fisher Scientific) and NuPAGE LDS Sample buffer (Thermo Fisher Scientific), the supernatant was used for SDS-PAGE. SDS-PAGE was performed using a 5–12% polyacrylamide gel (FUJIFILM Wako) and NuPAGE MOPS SDS running buffer (Thermo Fisher Scientific) for 1 h, 120 V. One microgram of protein was loaded in each lane. […] After three washes with PBST, the secondary antibodies were detected using ImmunoStar (FUJIFILM Wako) and LAS 3000 (FUJIFILM). […]

[2] = target: endogenous PD-1 tagged with SD (Mus musculus, UniProt Q02242+Q8C7D2); experiment: Endogenous PD-1-SD on concanavalin A-stimulated spleen T cells, flow cytometry; assay type: cell-based; settings: for percentage of activated T cells characterized by FSC high: Con A-stimulated splenocytes; for PD-1 on CD8+ and CD4+ cells: Con A, 24 h after 1 μM POM or 0.1–1 μM IBR
Sequence of endogenous PD-1 tagged with SD (Q02242 with tags, fused parts or gaps): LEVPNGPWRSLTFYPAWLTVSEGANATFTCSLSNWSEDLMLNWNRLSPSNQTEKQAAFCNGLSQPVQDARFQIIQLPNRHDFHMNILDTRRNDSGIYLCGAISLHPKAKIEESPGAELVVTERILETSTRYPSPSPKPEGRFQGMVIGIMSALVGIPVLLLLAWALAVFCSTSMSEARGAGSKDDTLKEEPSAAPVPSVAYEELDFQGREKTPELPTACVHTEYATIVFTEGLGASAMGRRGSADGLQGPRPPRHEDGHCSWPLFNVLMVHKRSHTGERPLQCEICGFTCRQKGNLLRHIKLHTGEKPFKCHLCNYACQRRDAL
Sequence of endogenous PD-1 tagged with SD (Q8C7D2 whole entry): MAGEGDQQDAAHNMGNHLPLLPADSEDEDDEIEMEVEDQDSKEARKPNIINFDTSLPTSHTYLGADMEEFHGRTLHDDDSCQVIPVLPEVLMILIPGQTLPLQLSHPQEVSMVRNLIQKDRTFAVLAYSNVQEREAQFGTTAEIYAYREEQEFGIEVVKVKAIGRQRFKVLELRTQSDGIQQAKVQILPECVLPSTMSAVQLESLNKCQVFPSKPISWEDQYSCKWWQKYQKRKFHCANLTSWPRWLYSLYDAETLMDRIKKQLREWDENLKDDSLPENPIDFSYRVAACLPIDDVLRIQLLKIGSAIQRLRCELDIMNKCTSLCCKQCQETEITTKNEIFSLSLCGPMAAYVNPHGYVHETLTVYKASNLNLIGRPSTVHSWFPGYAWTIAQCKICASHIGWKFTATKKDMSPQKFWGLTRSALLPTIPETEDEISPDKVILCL
Sequence of endogenous PD-1 tagged with SD (Q3U1J4 whole entry partner): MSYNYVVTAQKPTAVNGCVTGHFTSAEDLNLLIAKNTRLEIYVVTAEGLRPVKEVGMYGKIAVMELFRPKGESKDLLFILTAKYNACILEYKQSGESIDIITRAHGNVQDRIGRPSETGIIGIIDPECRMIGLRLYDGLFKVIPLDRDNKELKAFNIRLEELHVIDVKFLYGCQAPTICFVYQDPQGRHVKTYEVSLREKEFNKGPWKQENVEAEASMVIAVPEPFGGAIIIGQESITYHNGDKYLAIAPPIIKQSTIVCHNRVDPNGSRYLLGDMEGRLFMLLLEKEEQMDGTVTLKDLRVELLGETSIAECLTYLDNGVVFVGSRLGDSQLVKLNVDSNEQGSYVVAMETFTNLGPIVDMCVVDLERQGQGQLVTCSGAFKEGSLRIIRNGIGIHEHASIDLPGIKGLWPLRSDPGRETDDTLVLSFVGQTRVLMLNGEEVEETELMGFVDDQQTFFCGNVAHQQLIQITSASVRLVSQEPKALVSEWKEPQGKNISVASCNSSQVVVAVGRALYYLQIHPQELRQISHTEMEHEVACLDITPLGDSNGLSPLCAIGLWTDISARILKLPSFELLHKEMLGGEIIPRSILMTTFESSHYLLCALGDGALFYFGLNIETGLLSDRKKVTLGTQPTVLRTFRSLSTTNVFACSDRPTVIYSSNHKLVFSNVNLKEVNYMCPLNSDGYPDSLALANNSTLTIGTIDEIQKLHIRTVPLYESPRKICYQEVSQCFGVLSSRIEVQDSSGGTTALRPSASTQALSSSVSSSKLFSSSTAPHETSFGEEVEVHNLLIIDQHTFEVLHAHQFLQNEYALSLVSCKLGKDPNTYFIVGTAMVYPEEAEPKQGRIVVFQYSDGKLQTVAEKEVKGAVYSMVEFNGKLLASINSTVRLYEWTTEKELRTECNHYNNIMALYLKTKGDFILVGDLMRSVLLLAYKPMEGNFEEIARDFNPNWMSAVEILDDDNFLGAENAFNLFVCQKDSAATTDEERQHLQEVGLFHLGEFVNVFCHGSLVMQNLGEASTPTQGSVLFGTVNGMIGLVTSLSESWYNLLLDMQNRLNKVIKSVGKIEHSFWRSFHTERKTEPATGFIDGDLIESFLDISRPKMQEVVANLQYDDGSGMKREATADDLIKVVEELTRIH
Procedure: The dotted lines show an isotype control without IBR. […] The dotted lines show an isotype control without IBR. […] The black lines show isotype control without IBR. […] Red lines show the boundary between positive and negative. […] (B–J) IBR or solvent (−) was added to cultured splenocytes (B–G) or mESCs (H–J). […] The concentration is 0.1 μM in the rightmost bar in each group, and the left neighbor is a step dilution of one-tenth. Intensities of anti-PD-1-FITC on CD4^+ and CD8^+ T cells were measured by flow cytometry, and the geometric means of fluorescence intensities (MFI) were calculated. The MFI of the isotype control of anti-PD-1-FITC was subtracted from each MFI of anti-PD-1-FITC. The dots indicate the results of the experiment for each of the three samples from different individuals.
Pdcd1^SD/SD/Crbn^I391V/I391V spleen-derived T cells were stimulated in vitro with concanavalin A (Con A) followed by treatment with thalidomide analogs to examine PD-1 expression (Figures 6B–6D and S6A–S6C).
To determine whether the same phenomenon occurs in non-T cells, exogenous PD-1 degradation was examined in mESCs transfected with PD-1-SD expression vectors (Figures 6H–6J and S6E). […] We hypothesized that the degradation efficiency of membrane-localized proteins might be reduced in mouse-type CRBNs. Therefore, we expressed EGFP-SDs with membrane-localized peptides attached to their N-termini in mESCs and added IBR. The degradation efficiency of EGFP-SD with membrane-localization peptide[32] […] Therefore, Pdcd1^SD/SD/Crbn^I391V/I391V mice were used for further analyses.
Splenocytes were harvested after the mice were euthanized. Splenocytes were isolated in RPMI 1640 medium and collected using a 70 μm filter. After treatment with ACT solution to remove red blood cells, splenocyte culture was performed at a density of 2 × 10^6 cells/mL in RPMI 1640 with 10% FBS, Glutamax and penicillin-streptomycin and incubated at 37°C in a 5% CO2 containing atmosphere. To activate T cells, 0.5 μg/mL concanavalin A was added to the medium for 3 days to activate T cells.

EGFP-IKZF = EGFP-IKZF (UniProt P42212+Q8C7D2, F64L/H231L/INS1V/S65T); assay type: cell-based, mouse; settings: read-out: DC50, EGFP-IKZF, stable
Sequence of EGFP-IKZF (Q8C7D2 whole entry, looked up, stated change not applied, other chains not shown): as the sequence (Q8C7D2 whole entry) above

EGFP-SD = EGFP-SD (Aequorea victoria, UniProt P42212, F64L/H231L/S65T); assay type: cell-based, mouse; settings: stable; for DC50: read-out: DC50, EGFP-SD
[3] = tested on: mouse PD-1-mCherry-super degron (SD) tag; experiment: Degradation of SD-tagged mouse PD-1-mCherry in Jurkat cells, flow cytometry 24 h; assay type: cell-based, human; settings: for Bottom, mCherry (mC): no reagent = 1; for Bottom, PD-1 (FITC): surface PD-1, no reagent = 1
Description: To identify a tag that could efficiently knock down mouse PD-1, we connected various degron tags to the C-terminus of PD-1, including IKZF1/3, Sall4, ZFP91, and SD, and generated Jurkat human T cell lymphoma cell lines that stably expressed the mouse PD-1-degron tag (Figure 1A). […] Therefore, a human cell line was used because it was thought that mouse CRBN would not degrade SD by thalidomide analogs. […] We also analyzed the degradation of total proteins using mCherry.
(C and D) The amount was standardized with the sample to which no reagent was added as 1. Concentrations of reagents were 0 (−), 5, 10, and 20 μM for IKZF minimal, IKZF full-length, and Sall4 tags and 0 (−), 0.5, 5 μM for SD tag. The dots indicate the results of the experiment for each of samples.

[4] = Pdcd1SD/SD/CrbnI391V/I391V T cells
[5] = CrbnI391V/I391V mESCs, Figure 5E

Sequence of PD-1 tagged with SD in the brain (Q02242 with tags, fused parts or gaps): as the sequence (Q02242 with tags, fused parts or gaps) above
Sequence of PD-1 tagged with SD in the brain (Q8C7D2 whole entry): as the sequence (Q8C7D2 whole entry) above
Sequence of PD-1 tagged with SD in the brain (Q3U1J4 whole entry partner): as the sequence (Q3U1J4 whole entry partner) above

Row | Structure (SMILES) | percentage of activated T cells characterized by FSC high [2] | PD-1 on CD8+ and CD4+ cells [2, 4] | DC50 (EGFP-IKZF; [5]) [nM] | Bottom, EGFP-SD (EGFP-SD; B6J-S1 mESCs, Figure 5D) | LogDC50, EGFP-SD (EGFP-SD; B6J-S1 mESCs, Figure 5D) [μM] | Bottom, EGFP-SD (EGFP-SD; [5]) | LogDC50, EGFP-SD (EGFP-SD; [5]) [μM] | DC50 (EGFP-SD; B6J-S1 mESCs, Figure 5D) [nM] | DC50 (EGFP-SD; [5]) [nM] | concentration showing the same effect on PD-1-SD [3] [µM] | Bottom, mCherry (mC) [3] | Bottom, PD-1 (FITC) [3] | also measured
1 | Nc1cccc2c1C(=O)N(C1CCC(=O)NC1=O)C2=O (stereo not shown) [POM, pomalidomide] | not affected | barely observed | 5.11 | 0.01974 | -2.853 | 0.06229 | -2.993 | 1.4 | 1.02 | 5 | 0.2421 | 0.11 and 0.1083 | PD-1 amount in the brain vs vehicle ([1]; 20 mg/kg POM oral, after 24 h): reduced to half the amount; DC50 ([3]; read-out: DC50, PD-1 (FITC), surface PD-1): 148 nM; DC50 ([3]; read-out: DC50, mCherry (mC), mCherry): 234 nM
2 | O=C1CC[C@H](N2Cc3c(OCc4ccc(CN5CCOCC5)cc4)cccc3C2=O)C(=O)N1 [IBR, iberdomide] | not affected | barely observed | 0.639 | 0.02363 | -3.579 | 0.04851 | -4.174 | 0.264 | 0.067 | 0.5 | 0.2415 | 0.1258 | PD-1 expression in the brain ([1]; IBR 10 mg/kg oral, 24 h): no changes in PD-1 expression in the brain; PD-1 degradation ([2]; Pdcd1SD/SD/Crbn+/+ T cells): barely degraded; PD-1 removal ([2]; Pdcd1SD/SD/CrbnI391V/I391V T cells, 10^−2 μM and 10^−3 μM IBR): mostly removed; DC50 (EGFP-IKZF; B6J-S1 mESCs, Figure 5B): 29.1 nM; Bottom, EGFP-SD (EGFP-SD; B6J-S1 mESCs, Figure 5B): 0.05422; LogDC50, EGFP-SD (EGFP-SD; B6J-S1 mESCs, Figure 5B): -3.152 μM; DC50 (EGFP-SD; B6J-S1 mESCs, Figure 5B): 0.704 nM

Reference: paper PMC12274739, “Differential substrate degradation by super-degron: EGFP in wild-type mouse cells, PD-1 requires CRBN humanization” (iScience, 2025)
